Tests used:
[1] = tested on: VCAP human prostate cancer tumor cells; experiment: VCaP CRPC CDX model in castrated mice (Example 6), tumor growth inhibition and tolerability; assay type: in vivo
Protocol: Procedure: The experimental details of the studies, including tumor model, mouse strain, cell number implanted, vehicle used, days of treatment, treatment details, and average tumor size at start of dosing are outlined in Table 7. All study mice were obtained and the studies were conducted at Pharmaron. Each mouse was inoculated subcutaneously on the right flank with the single cell suspension of VCAP human prostate cancer tumor cells (1×10^7) in 0.1 mL with Matrigel (1:1) in DMEM medium with 10% FBS for tumor development. The mice were castrated by removing the testes via a scrotal approach when the tumor volume reached 270 mm^3. After castration, the tumor volume decreased. Treatment started when the mean tumor volume grew back 265 mm^3. Based on tumor volume, mice were randomly assigned to respective groups using a computer-generated randomization procedure and treated according to the study design in Table 8.

[2] = tested on: LNCaP prostate xenograft tumors; experiment: LNCaP prostate xenograft tumor model, tumor growth inhibition; assay type: in vivo, mice
Protocol: (§1) Procedure: The experimental details of the studies, including tumor model, mouse strain, cell number implanted, vehicle used, days of treatment, treatment details, and average tumor size at start of dosing are outlined in Table 1. All study mice were purchased from Beijing Anikeeper Biotech and Matrigel was utilized as a basement membrane for all xenograft models. All xenografts were engrafted subcutaneously in the right flank region. The vehicles and Compound 1 (3 mg/kg) were administered twice weekly (BIW) intraperitoneally and enzalutamide (30 mg/kg) was administered orally once daily (QD), when applicable. Tumor volumes and body weights were measured over the course of study, and doses were adjusted by body weight to achieve the proper dose in terms of mg/kg.

[3] = tested on: PC3 prostate xenograft tumors; experiment: PC3 prostate xenograft tumor model, tumor growth inhibition; assay type: in vivo, mice
Protocol: as §1

[4] = tested on: VCaP prostate xenograft tumors; experiment: VCaP prostate xenograft tumor model (Example 1), tumor growth inhibition; assay type: in vivo, mice
Protocol: as §1

BRD9 protein = target: T1, BRD9 protein (Homo sapiens, UniProt Q9H8M2); experiment: BRD9 levels in DU145 tumors by Western Blotting (PK/PD cohort); assay type: in vivo; details: for BRD9 protein degradation (Western Blot): 72 h post last dose, P<0.05 vs. vehicle control
T1 construct: endogenous in cells; host or cells: DU145 human prostate cancer cells grown as subcutaneous xenograft tumors in mice
T1 sequence (Q9H8M2 1-597): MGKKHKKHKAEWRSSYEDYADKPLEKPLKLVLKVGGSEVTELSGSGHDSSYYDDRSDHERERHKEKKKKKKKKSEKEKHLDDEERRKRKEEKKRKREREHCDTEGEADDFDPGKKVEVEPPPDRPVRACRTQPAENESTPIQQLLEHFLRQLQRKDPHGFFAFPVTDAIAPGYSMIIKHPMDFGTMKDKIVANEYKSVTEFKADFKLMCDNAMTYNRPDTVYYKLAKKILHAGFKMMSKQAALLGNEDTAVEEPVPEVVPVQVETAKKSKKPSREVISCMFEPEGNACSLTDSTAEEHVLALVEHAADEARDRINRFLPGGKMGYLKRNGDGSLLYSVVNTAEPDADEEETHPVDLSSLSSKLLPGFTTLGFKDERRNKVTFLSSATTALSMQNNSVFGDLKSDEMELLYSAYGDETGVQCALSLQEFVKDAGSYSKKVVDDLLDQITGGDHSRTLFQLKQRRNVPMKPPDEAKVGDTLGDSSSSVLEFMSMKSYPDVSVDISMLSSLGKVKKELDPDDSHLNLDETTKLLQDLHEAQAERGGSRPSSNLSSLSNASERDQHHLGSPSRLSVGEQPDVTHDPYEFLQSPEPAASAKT
Protocol: (§2) Procedure: The experimental details of the studies, including tumor model, mouse strain, cell number implanted, vehicle used, days of treatment, treatment details, and average tumor size at start of dosing are outlined in Table 3. All study mice were obtained and the studies were conducted at Pharmaron. Each mouse was inoculated subcutaneously on the right flank with the single cell suspension of DU145 human prostate cancer tumor cells (5×10^6) in 0.1 mL with Matrigel (1:1) in MEM with 10% FBS for tumor development.
(§3) Based on tumor volume, mice were randomly assigned to respective groups using a computer-generated randomization procedure. The study groups and the number of animals per group are shown in Table 4A (efficacy study) and Table 4B (PKPD study).
Treatment for the PKPD cohort was initiated when the mean tumor volume reached 281 mm^3 on Day 14 post tumor cell inoculation. Animals were randomized into 5 groups: 1) Vehicle Control, 3 doses intraperitoneally (IP); 2) Compound 1 at 1 mg/kg, single dose IP; 3) Compound 1 at 15 mg/kg, single dose IP; 4) Compound 1 at 1 mg/kg, 3 doses IP; and 5) Compound 1 at 15 mg/kg, 3 doses IP.
(§4) In the case of an animal reaching a tumor size exceeding 2000 mm^3, the entire group was terminated. Plasma and tumor samples were collected at 4 hours and 72 hours post last dose for all groups. For the PKPD Cohort, the tumors were cut into 2 pieces: one for Western Blotting (WB) with BRD9 analysis, and one for RNAseq analysis. For the Efficacy Cohort, the tumors were analyzed for BRD9 levels by Western Blotting (WB).

[5] = tested on: DU145 human prostate cancer tumor cells; experiment: DU145 subcutaneous CDX model efficacy study (tumor growth inhibition, tolerability); assay type: in vivo, mice; details: for tumor growth inhibition (TGI): DU145, P<0.001 vs. vehicle control; for Tumor Growth % on Day 49 / Tumor Size on Day 49 / T/C / TGI: DU145 subcutaneous model, 43 days; for T/C / TGI: Day 49
Protocol: as §2, §3
Treatment for the efficacy cohort was initiated when the mean tumor volume reached 145 mm^3 on Day 7 post tumor cell inoculation. Animals for the efficacy study were randomized into 3 groups: 1) Vehicle Control BIW IP (administered twice per week, intraperitoneally (IP); 2) Compound 1 at 3 mg/kg BIW IP; and 3) Compound 1 at 15 mg/kg BIW IP.
as §4

[6] = tested on: C42B prostate xenograft tumors; experiment: C42B prostate xenograft tumor model, tumor growth inhibition; assay type: in vivo, mice
Protocol: as §1

[7] = VCAP CRPC model, castrated mice, Compound 1 at 10 mg/kg IP BIW, 25 days
[8] = VCAP CRPC model, castrated mice, Compound 1 at 10 mg/kg IP BIW, 25 days, Day 57

For `COc1cc(-c2cn(C)c(=O)c3cnc(N4CCC4)cc23)cc(OC)c1CN1CCC(CN2CCC3(CC2)CN(c2ccc4c(c2)C(=O)N(C2CCC(=O)NC2=O)C4)C3)CC1` (centres unmarked) [Compound 1, 3-(6-(7-((1-(4-(6-(azetidin-1-yl)-2-methyl-1-oxo-1,2-dihydro-2,7-naphthyridin-4-yl)-2,6-dimethoxybenzyl)piperidin-4-yl)methyl)-2,7-diazaspiro[3.5]nonan-2-yl)-1-oxoisoindolin-2-yl) piperidine-2,6-dione], the “animals found dead at the late stage of the treatment period” value ([1]; Compound 1 10 mg/kg, enzalutamide 30 mg/kg, deaths suspected due to castration surgery) was “One”, the “Tumor Growth % on Day 57” value [1, 7] was 267 ± 20% and the “Tumor Size on Day 57” value [1, 7] was 697 ± 44 mm3. It also gave a T/C [1, 8] of 86.2%, a TGI [1, 8] of 13.8% and a TGI ([1]; VCaP CRPC model, castrated mice, Compound 1 10 mg/kg, enzalutamide 30 mg/kg, day 57 after tumor inoculation) of 13.8%. For the same molecule, the “TGI with Compound 1 3 mg/kg” value ([2]; LNCaP CDX model, AR+, 3 mg/kg BIW IP) was 6.0%, the “tumor growth inhibition (TGI), in words” value ([2]; LNCaP xenograft, Compound 1 3 mg/kg BIW IP, enzalutamide 30 mg/kg QD oral) was “did not result in tumor growth inhibition” and the “TGI with Compound 1 3 mg/kg” value ([3]; PC3 CDX model, AR−, 3 mg/kg BIW IP) was 61.7%. The TGI ([3]; PC-3 CDX model, Compound 1 3 mg/kg BIW IP) was 61.7%, the “TGI with Compound 1 3 mg/kg” value ([4]; VCaP CDX model, AR V7+, 3 mg/kg BIW IP) was 57.8% and the “tumor growth inhibition, in words” value ([4]; VCaP xenograft, Compound 1 3 mg/kg BIW IP, enzalutamide 30 mg/kg QD oral) was “tumor growth inhibition that was greater than the inhibition provided by enzalutamide treatment”. For the same molecule, the “BRD9 protein degradation (Western Blot)” value (BRD9 protein; 15 mg/kg single dose IP) was “statistically and significantly degrade BRD9 protein”, the “BRD9 protein degradation (Western Blot)” value (BRD9 protein; 15 mg/kg three doses IP) was “statistically and significantly degrade BRD9 protein” and the “correlation of plasma PK with in vivo BRD9 degradation” value (BRD9 protein; DU145 AR-negative prostate CDX model) was “positively corelates”. The “tumor growth inhibition (TGI)” value ([5]; 3 mg/kg BIW IP) was 42.2%, the “tumor growth inhibition (TGI)” value ([5]; 15 mg/kg BIW IP) was 55.3% and the “safety profile: tolerability” value ([5]; DU145 study, 1 mg/kg, 3 mg/kg and 15 mg/kg IP during the treatment period) was “tolerated Compound 1 well”. For the same molecule, the clinical abnormalities ([5]; DU145 study, any of the animals treated) was “No obvious clinical abnormalities”, the “Tumor Growth % on Day 49” value ([5]; 3 mg/kg BIW IP) was 710 ± 19% and the “Tumor Size on Day 49” value ([5]; 3 mg/kg BIW IP) was 1029 ± 30 mm^3. The T/C ([5]; 3 mg/kg BIW IP) was 57.8%, the TGI ([5]; 3 mg/kg BIW IP) was 42.2% and the “Tumor Growth % on Day 49” value ([5]; 15 mg/kg BIW IP) was 549 ± 26%. The “Tumor Size on Day 49” value ([5]; 15 mg/kg BIW IP) was 793 ± 31 mm^3, the T/C ([5]; 15 mg/kg BIW IP) was 44.7% and the TGI ([5]; 15 mg/kg BIW IP) was 55.3%. For the same molecule, the “TGI with Compound 1 3 mg/kg” value ([6]; C42B CDX model, AR+, 3 mg/kg BIW IP) was 28.7% and the “tumor growth inhibition, in words” value ([6]; C42B xenograft, Compound 1 3 mg/kg BIW IP, enzalutamide 30 mg/kg QD oral) was “modest tumor growth inhibition which was less than the TGI provided by enzalutamide treatment”.

From US20250255857A1, “METHODS OF TREATING ANDROGEN RECEPTOR-INDEPENDENT PROSTATE CANCER” (FOGHORN THERAPEUTICS INC., priority 2022, published 2025)
